Columns and labels:
CD15+/CD14− cells = assay: Respiratory burst assay, dihydrorhodamine-123 / PMA (Example 39); type: cell-based, human; conditions: Formula I-expanded Differentiation Cultures, day 13; 200 nM PMA 30 minutes
Protocol: On day 13 of Granulocyte Differentiation Culture, a portion of the culture was removed for in vitro analysis of granulocyte function through two separate assays for phagocytosis and respiratory burst.
In the respiratory burst assay, the ability of cells to generate reactive oxygen species (used to kill ingested bacteria) was measured. Cells were first pulsed for 15 minutes with dihydrorhodamine-123, a reagent that fluoresces only after it has been oxidized to rhodamine 123. Following this incubation, cells were treated for 30 minutes with 200 nM phorbol 12-myristate 13-acetate (PMA) to non-specifically activate the respiratory burst. Control samples without PMA were also prepared. Following this incubation, cells were stained with antibodies to CD15 and CD14, washed thoroughly, then analyzed via flow cytometry on an Attune flow cytometer. CD15+/CD14− cells were quantified for rhodamine 123 fluorescence, indicating activation of oxidative burst.

[1] = test system: expanded cord blood CD34+ cells, granulocyte (CD15+/CD14−) and monocyte (CD14+/CD15−) lineage; assay: Myeloid (granulocyte and monocyte) Differentiation Culture after Expansion Culture (Example 38); type: cell-based, human
Protocol: At days 21 and 63, CD34+ enriched cells were placed into Differentiation Cultures, described below.
Differentiation cultures were initiated using Erythroid, Myeloid (granulocyte and monocyte), and Megakaryocyte HemaTox kits from STEMCELL technologies following the manufacturer's instructions. In brief, lineage media was prepared by adding cytokine cocktails for erythrocyte (SCF, IL-3, and EPO), myeloid (i.e. mixed granulocyte/monocyte, SCF, TPO, G-CSF, and GM-CSF) or megakaryocyte (SCF, IL-6, IL-9 and TPO) lineage differentiation to their respective kits' media, then adding approximately 30-100 CD34+ cells for erythroid or myeloid cultures, or 300-1000 CD34+ cells for megakaryoid cultures. Exact cell numbers plated were quantified for later analysis. All incubations for Differentiation Culture took place at 3% oxygen (controlled by nitrogen) and 5% CO2.
Following seven days of erythroid or myeloid cultures, or ten days for megakaryoid cultures, differentiated cell output was quantified using flow cytometry. Erythroid output was quantified using anti-CD71 and anti-CD235a antibodies, and megakaryocyte lineage output was quantified using anti-CD41 and anti-CD42b antibodies. Granulocyte and monocyte lineage outputs were assessed in tandem, using CD14 and CD15 antibodies, with granulocyte lineage cells being CD15+/CD14−, and monocyte lineage cells being CD14+/CD15−.
A number of quantities were calculated to assess the effect of expansion of CD34+ cells in the +Formula I Condition on the output of lineage differentiated cells. “Per-Assayed-CD34+ Cell Output” describes the output of differentiated cells per CD34+ cell placed into Differentiation Culture, and is calculated by dividing the total number of lineage-positive cells by the input CD34+ cell number quantified at Differentiation Culture initiation at day 1, 21, or 63. “Per-expanded-day-1-CD34+ cell output” describes the number of differentiated cells of a given lineage that may be produced from a single CD34+ cell following both Expansion Cell Culture (if expanded) followed by Differentiation Culture, and is calculated by multiplying Per-Assayed-CD34+ Cell Output by the fold expansion of CD34+ cells from day 1 to the day of analysis, either day 21 or day 63. […] We calculated therapeutic units for granulocyte precursors, using 50 billion (5×10^10) cells per dose as a conservative benchmark (Valentini, C. G., Farina, F., Pagano, L., and Teofili, L. (2017). Granulocyte Transfusions: A Critical Reappraisal. Biol. Blood Marrow Transplant. 23, 2034-2041). […]

[2] = +Formula I expansion to day 21, then 7 days differentiation
[3] = +Formula I expansion to day 63, then 7 days differentiation

CC(C)(C)C(=O)Nc1ccc2c(c1)C(O)c1ccccc1-2 (centres unmarked) [Compound 1.010]
cells that activated respiratory burst when stimulated with PMA (CD15+/CD14− cells): 56%
fold increase of per-expanded-day-1-CD34+ cell output, monocyte lineage, over uncultured cells [1, 2]: 800 fold
fold increase of per-expanded-day-1-CD34+ cell output, total granulocyte lineage, over uncultured cells [1, 2]: 370 fold
fold increase of per-expanded-day-1-CD34+ cell output, monocyte lineage, over uncultured cells [1, 3]: 108,000 fold
fold increase of per-expanded-day-1-CD34+ cell output, total granulocyte lineage, over uncultured cells [1, 3]: 67,000 fold
